Test results reported in US11458189B2, “Cytoprotective drugs” (BALMES TRANSPLANTATION, priority 2017, dated 2022).
Starred links: 1 amine or outer side, 2 acyl side, 3 side chain; linkers in the order of their positions; H or OH if unused. Positions of bridges follow the written chain, without caps; N, C: chain ends. Non-standard residues stand in square brackets, D forms with d. Residues, ends and D or L forms follow the SMILES beside them. *: point of attachment. hTyr(3S-OH,4S-OH,3'-OSO3H) = N[C@H](C(=O)O)[C@H](O)[C@@H](O)c1ccc(O)c(OS(=O)(=O)O)c1; Orn(4R-OH,5R-OH) = O=C([C@H](C[C@@H](O)[C@@H](O)N[*:3])N[*:1])[*:2]; Pro(3S-OH,4S-Me) = C[C@H]1CN[C@H](C(=O)O)[C@H]1O; X1 = CCCCCOc1ccc(-c2cc(-c3ccc(C(=O)*)cc3)no2)cc1; Gln(3R-OH) = NC(=O)C[C@@H](O)[C@H](N)C(=O)O; Hyp = O=C(O)[C@@H]1C[C@@H](O)CN1

Tested on: Human Renal Proximal Tubular Epithelial Cells (HRPTEpiC)
Assay: Oxygen and glucose deprivation followed by replenishment, cell survival (calcein AM), HRPTEpiC
Assay type: cell-based
Description: Anidulafungin and micafungin were tested on Human Renal Glomerular Endothelial Cells (HRGEC, Innoprot P10665), on Human Renal Proximal Tubular Epithelial Cells (HRPTEpiC, Innoprot P10662), on Human Astrocytes (HA, caltag SC-1800), on Human Cardiac Microvascular Endothelial Cells (HCMEC, Caltag SC-6000), on Human Hepatic Sinusoidal Endothelial Cells (HHSEC, Caltag SC-5000), on Rat Primary Kidney Glomerular Endothelial cells (Cellbiologics, RN-6014G) and on Bovine Brain Microvascular Endothelial Cells (BBMEC, Caltag SC-B100).
In a first phase, these isolated, purified and cryopreserved cells are thawed and multiplied according to the supplier's recommendations in T75 or T175 flasks pre-coated with 2 μg of fibronectin/[…] (CORNING) for HRGEC, HCMEC, HHSEC and BBMEC, or 2 μg poly-L-lysin/cm^2 (Caltag SC-0403) for HRPTEpiC and HA, or 15 mL/flask 175 cm^2 gelatin-based solution (Cellbiologics) in the presence of endothelial cell supplemented growth medium ECM (P60104, INNOPROT, Caltag, SC-1001) for HRGEC, HCMEC, HHSEC, RPKGEC or BBMEC, or astrocyte cell supplemented growth medium AM (Caltag SC-1801) for HA or epithelial cell supplemented growth medium EpiCM (P60106, INNOPROT) for HRPTEpiC, at 37° C. under 5% CO2 and saturated humidity until their confluency. They are then harvested by trypsinization according to the method described by the supplier for exactly 5 minutes and then reseeded in new flasks a maximum of three times.
To carry out the oxygen and glucose deprivation test followed by their replenishment, the cells will be seeded in 96-well black plates with transparent flat bottom (GREINER). Once a sufficient number of cells has been obtained to allow seeding of 2000 to 15000 cells per well of 96-well plates depending on the cell type, the cells are seeded in these 96-well plates previously coated with an extracellular matrix as listed above for the flasks. The cells are cultured for 5 to 8 days according to the cell type, in the presence of the same growth medium as in the flask as described above except for HRGEC and HRPTEpiC for which DMEM (DUTSCHER) with 1 g/L of supplemented glucose is used, at 37° C. under 5% CO2 and saturated humidity to obtain confluency.
On the first day of oxygen and glucose deprivation, (5th, 6th, 7th or 8th day of culture), the culture conditions are drastically changed. The medium of all plates is removed and replaced by DMEM (DUTSCHER) medium without glucose and supplemented only with 1% penicillin-streptomycin (DUTSCHER). Anidulafungin or micafungin dissolved in dimethyl sulfoxide (DMSO) is then added to each well at the desired concentration, resulting in a maximum of 1% DMSO, and the plates are placed under hypoxia at <1% 02 and 5% CO2 at 37° C. for 24 hours of culture. Each compound was tested in a concentration range.
After 24 hours, the growth medium is changed and replaced by a richer medium, DMEM (DUTSCHER) at 1 g/L glucose and 2% FBS (INNOPROT) and 1% penicillin-streptomycin (DUTSCHER). These media will have been pre-equilibrated at 37° C. in advance. The cells are then returned to culture at 37° C. under 20% 02 and 5% CO2 for 22h.
After 22 hours of reoxygenation, the potential protective effect of anidulafungin or micafungin is measured by a cell viability test using calcein AM (CORNING), which is a dye substrate. The calcein AM can easily cross the cell membrane of the viable cells. The AM ester groups mask the part of the molecule that chelates calcium. Once inside the cells, the (non-fluorescent) calcein AM is hydrolyzed to (fluorescent) calcein by endogenous esterases. The resulting calcein molecule binds to calcium inside the cell and remains trapped inside the cell. These molecules emit strong green fluorescence when subjected to […] of a particular wavelength (495 nm). Since dead cells lack esterase activity, only living cells are labelled.
This cell viability test is performed in two steps. […]

## CCCCCOc1ccc(-c2cc(-c3ccc(C(=O)N[C@H]4C[C@@H](O)[C@@H](O)NC(=O)[C@@H]5[C@@H](O)[C@@H](C)CN5C(=O)[C@H]([C@H](O)CC(N)=O)NC(=O)[C@H]([C@H](O)[C@@H](O)c5ccc(O)c(OS(=O)(=O)O)c5)NC(=O)[C@@H]5C[C@@H](O)CN5C(=O)[C@H]([C@@H](C)O)NC4=O)cc3)no2)cc1 [Micafungin, {5-[(1S,2S)-2-[(3S,6S,9S,11R,15S,18S,20R,21R,24S,25S,26S)-3-[(1R)-2-carbamoyl-1-hydroxyethyl]-11,20,21,25-tetrahydroxy-15-[(1R)-1-hydroxyethyl]-26-methyl-2,5,8,14,17,23-hexaoxo-18-[(4-{5-[4-(pentyloxy)phenyl]-1,2-oxazol-3-yl}benzene)amido]-1,4,7,13,16,22-hexaazatricyclo[22.3.0.0]heptacosan-6-yl]-1,2-dihydroxyethyl]-2-hydroxyphenyl}oxidanesulfonic acid] (X1-[Orn(4R-OH,5R-OH)]T[Hyp][hTyr(3S-OH,4S-OH,3'-OSO3H)][Gln(3R-OH)][Pro(3S-OH,4S-Me)]; lactam 1-C)
[Micafungin] log μM −4.39794
  Globalfluo assay 1: 17038910 arbitrary units
  Globalfluo assay 2: 16914110 arbitrary units
  Globalfluo assay 3: 17516930 arbitrary units
  Mean globalfluo: 17156650 arbitrary units
  Survival rate (%): 58%
[Micafungin] log μM −4.69897
  Globalfluo assay 1: 18487560 arbitrary units
  Globalfluo assay 2: 18879740 arbitrary units
  Globalfluo assay 3: 18282240 arbitrary units
  Mean globalfluo: 18549847 arbitrary units
  Survival rate (%): 63%
[Micafungin] log μM −4.79588
  Globalfluo assay 1: 17777390 arbitrary units
  Globalfluo assay 2: 17681470 arbitrary units
  Globalfluo assay 3: 18724080 arbitrary units
  Mean globalfluo: 18060980 arbitrary units
  Survival rate (%): 61%
[Micafungin] log μM −4.853872
  Globalfluo assay 1: 17634840 arbitrary units
  Globalfluo assay 2: 17920170 arbitrary units
  Globalfluo assay 3: 19831830 arbitrary units
  Mean globalfluo: 18462280 arbitrary units
  Survival rate (%): 63%
[Micafungin] log μM −4.920819
  Globalfluo assay 1: 18495680 arbitrary units
  Globalfluo assay 2: 17954570 arbitrary units
  Globalfluo assay 3: 19304800 arbitrary units
  Mean globalfluo: 18585017 arbitrary units
  Survival rate (%): 64%
[Micafungin] log μM −5
  Globalfluo assay 1: 19091330 arbitrary units
  Globalfluo assay 2: 21245570 arbitrary units
  Globalfluo assay 3: 20574080 arbitrary units
  Mean globalfluo: 20303660 arbitrary units
  Survival rate (%): 71%
[Micafungin] log μM −5.30103
  Globalfluo assay 1: 17265090 arbitrary units
  Globalfluo assay 2: 20693980 arbitrary units
  Globalfluo assay 3: 20348120 arbitrary units
  Mean globalfluo: 19435730 arbitrary units
  Survival rate (%): 67%
[Micafungin] log μM −5.69897
  Globalfluo assay 1: 5296218 arbitrary units
  Globalfluo assay 2: 13559640 arbitrary units
  Globalfluo assay 3: 14370600 arbitrary units
  Mean globalfluo: 11075486 arbitrary units
  Survival rate (%): 32%
[Micafungin] log μM −5.823909
  Globalfluo assay 1: 4696579 arbitrary units
  Globalfluo assay 2: 8382404 arbitrary units
  Globalfluo assay 3: 9632039 arbitrary units
  Mean globalfluo: 7570341 arbitrary units
  Survival rate (%): 18%
[Micafungin] log μM −6
  Globalfluo assay 1: 5307945 arbitrary units
  Globalfluo assay 2: 5614600 arbitrary units
  Globalfluo assay 3: 8026091 arbitrary units
  Mean globalfluo: 6316212 arbitrary units
  Survival rate (%): 13%
[Micafungin] log μM −6.09691
  Globalfluo assay 1: 6028392 arbitrary units
  Globalfluo assay 2: 5998920 arbitrary units
  Globalfluo assay 3: 5793032 arbitrary units
  Mean globalfluo: 5940115 arbitrary units
  Survival rate (%): 11%
[Micafungin] log μM −6.221849
  Globalfluo assay 1: 4745212 arbitrary units
  Globalfluo assay 2: 4694631 arbitrary units
  Globalfluo assay 3: 5790310 arbitrary units
  Mean globalfluo: 5076718 arbitrary units
  Survival rate (%): 8%
[Micafungin] log μM −6.39794
  Globalfluo assay 1: 4361975 arbitrary units
  Globalfluo assay 2: 4442347 arbitrary units
  Globalfluo assay 3: 5176795 arbitrary units
  Mean globalfluo: 4660372 arbitrary units
  Survival rate (%): 6%
[Micafungin] log μM −6.69897
  Globalfluo assay 1: 4839699 arbitrary units
  Globalfluo assay 2: 4005588 arbitrary units
  Globalfluo assay 3: 4289833 arbitrary units
  Mean globalfluo: 4378373 arbitrary units
  Survival rate (%): 5%
[Micafungin] log μM −7
  Globalfluo assay 1: 3602590 arbitrary units
  Globalfluo assay 2: 3530551 arbitrary units
  Globalfluo assay 3: 3665638 arbitrary units
  Mean globalfluo: 3599593 arbitrary units
  Survival rate (%): 2%
[Micafungin] log μM −8
  Globalfluo assay 1: 3781795 arbitrary units
  Globalfluo assay 2: 3409519 arbitrary units
  Globalfluo assay 3: 3718559 arbitrary units
  Mean globalfluo: 3636624 arbitrary units
  Survival rate (%): 2%
